# Source: PubChem BioAssay (NCI)
#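 Cells were grown in 96-well plates and exposed to each compound for 48 hours at five concentrations; endpoints were interpolated linearly between bracketing concentrations, or set to the highest concentration if not reached. Here, GI50 denotes the concentration required for 50% inhibition of growth. TGI is the concentration that stops growth completely.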
# Key:
# Assay in all cases: DTP human tumour cell line panel, 48 h
# 786-0 renal = tested on: 786-0 renal
# A498 renal = tested on: A498 renal
# A549 NSCLC = tested on: A549 NSCLC
# ACHN renal = tested on: ACHN renal
# BT-549 breast = tested on: BT-549 breast
# CAKI-1 renal = tested on: CAKI-1 renal
# CCRF-CEM leukemia = tested on: CCRF-CEM leukemia
# COLO 205 colon = tested on: COLO 205 colon
# DU-145 prostate = tested on: DU-145 prostate
# EKVX NSCLC = tested on: EKVX NSCLC
# HCC-2998 colon = tested on: HCC-2998 colon
# HCT-116 colon = tested on: HCT-116 colon
# HCT-15 colon = tested on: HCT-15 colon
# HL-60(TB) leukemia = tested on: HL-60(TB) leukemia
# HOP-62 NSCLC = tested on: HOP-62 NSCLC
# HOP-92 NSCLC = tested on: HOP-92 NSCLC
# HS 578T breast = tested on: HS 578T breast
# HT29 colon = tested on: HT29 colon
# IGROV1 ovarian = tested on: IGROV1 ovarian
# K-562 leukemia = tested on: K-562 leukemia
# KM12 colon = tested on: KM12 colon
# LOX IMVI melanoma = tested on: LOX IMVI melanoma
# M14 melanoma = tested on: M14 melanoma
# MALME-3M melanoma = tested on: MALME-3M melanoma
# MCF7 breast = tested on: MCF7 breast
# MDA-MB-231 breast = tested on: MDA-MB-231 breast
# MDA-MB-435 = tested on: MDA-MB-435
# MDA-MB-468 breast = tested on: MDA-MB-468 breast
# MOLT-4 leukemia = tested on: MOLT-4 leukemia
# NCI-H226 lung = tested on: NCI-H226 lung
# NCI-H23 lung = tested on: NCI-H23 lung
# NCI-H460 lung = tested on: NCI-H460 lung
# NCI-H522 lung = tested on: NCI-H522 lung
# NCI/ADR-RES ovarian = tested on: NCI/ADR-RES ovarian
# OVCAR-3 ovarian = tested on: OVCAR-3 ovarian
# OVCAR-4 ovarian = tested on: OVCAR-4 ovarian
# OVCAR-5 ovarian = tested on: OVCAR-5 ovarian
# OVCAR-8 ovarian = tested on: OVCAR-8 ovarian
# PC-3 prostate = tested on: PC-3 prostate
# RPMI-8226 leukemia = tested on: RPMI-8226 leukemia
# RXF 393 renal = tested on: RXF 393 renal
# SF-268 CNS = tested on: SF-268 CNS
# SF-295 CNS = tested on: SF-295 CNS
# SF-539 CNS = tested on: SF-539 CNS
# SK-MEL-2 melanoma = tested on: SK-MEL-2 melanoma
# SK-MEL-28 melanoma = tested on: SK-MEL-28 melanoma
# SK-MEL-5 melanoma = tested on: SK-MEL-5 melanoma
# SK-OV-3 ovarian = tested on: SK-OV-3 ovarian
# SN12C renal = tested on: SN12C renal
# SNB-19 CNS = tested on: SNB-19 CNS
# SNB-75 CNS = tested on: SNB-75 CNS
# SR leukemia = tested on: SR leukemia
# SW-620 colon = tested on: SW-620 colon
# T-47D breast = tested on: T-47D breast
# TK-10 renal = tested on: TK-10 renal
# U251 CNS = tested on: U251 CNS
# UACC-257 melanoma = tested on: UACC-257 melanoma
# UACC-62 melanoma = tested on: UACC-62 melanoma
# UO-31 renal = tested on: UO-31 renal
smiles,measurement,setting,value
Cc1ccc(C(=O)CSc2nnc(-c3c[nH]c4ccccc34)n2-c2ccccc2)cc1,GI50,786-0 renal,14.7 µM
same,TGI,786-0 renal,31.2 µM
same,GI50,A498 renal,22.1 µM
same,TGI,A498 renal,69.4 µM
same,GI50,A549 NSCLC,13.9 µM
same,TGI,A549 NSCLC,48.5 µM
same,GI50,ACHN renal,13.7 µM
same,TGI,ACHN renal,29.2 µM
same,GI50,BT-549 breast,25.1 µM
same,TGI,BT-549 breast,46.7 µM
same,GI50,CAKI-1 renal,14.9 µM
same,TGI,CAKI-1 renal,29.8 µM
same,GI50,CCRF-CEM leukemia,54.4 µM
same,TGI,CCRF-CEM leukemia,> 100 µM
same,GI50,COLO 205 colon,34.4 µM
same,TGI,COLO 205 colon,> 100 µM
same,GI50,DU-145 prostate,44.3 µM
same,TGI,DU-145 prostate,> 100 µM
same,GI50,EKVX NSCLC,19 µM
same,TGI,EKVX NSCLC,98.9 µM
same,GI50,HCC-2998 colon,20 µM
same,TGI,HCC-2998 colon,51.7 µM
same,GI50,HCT-116 colon,18.7 µM
same,TGI,HCT-116 colon,60.4 µM
same,GI50,HCT-15 colon,22.6 µM
same,TGI,HCT-15 colon,> 100 µM
same,GI50,HL-60(TB) leukemia,30.8 µM
same,TGI,HL-60(TB) leukemia,> 100 µM
same,GI50,HOP-62 NSCLC,16.1 µM
same,TGI,HOP-62 NSCLC,35.9 µM
same,GI50,HOP-92 NSCLC,14.7 µM
same,TGI,HOP-92 NSCLC,34.7 µM
same,GI50,HS 578T breast,14.1 µM
same,TGI,HS 578T breast,56.3 µM
same,GI50,HT29 colon,15.6 µM
same,TGI,HT29 colon,50.5 µM
same,GI50,IGROV1 ovarian,16.1 µM
same,TGI,IGROV1 ovarian,31.3 µM
same,GI50,K-562 leukemia,22.1 µM
same,TGI,K-562 leukemia,> 100 µM
same,GI50,KM12 colon,36.1 µM
same,TGI,KM12 colon,> 100 µM
same,GI50,LOX IMVI melanoma,14.3 µM
same,TGI,LOX IMVI melanoma,27.3 µM
same,GI50,M14 melanoma,32.1 µM
same,TGI,M14 melanoma,> 100 µM
same,GI50,MALME-3M melanoma,16.2 µM
same,TGI,MALME-3M melanoma,36.2 µM
same,GI50,MCF7 breast,15.7 µM
same,TGI,MCF7 breast,39.2 µM
same,GI50,MDA-MB-231 breast,15.4 µM
same,TGI,MDA-MB-231 breast,32.6 µM
same,GI50,MDA-MB-435,22.8 µM
same,TGI,MDA-MB-435,65.4 µM
same,GI50,MDA-MB-468 breast,12.8 µM
same,TGI,MDA-MB-468 breast,32.3 µM
same,GI50,MOLT-4 leukemia,21.8 µM
same,TGI,MOLT-4 leukemia,> 100 µM
same,GI50,NCI-H226 lung,9.22 µM
same,TGI,NCI-H226 lung,26.1 µM
same,GI50,NCI-H23 lung,13.7 µM
same,TGI,NCI-H23 lung,27.5 µM
same,GI50,NCI-H460 lung,15.2 µM
same,TGI,NCI-H460 lung,31 µM
same,GI50,NCI-H522 lung,16.3 µM
same,TGI,NCI-H522 lung,43.7 µM
same,GI50,NCI/ADR-RES ovarian,11.9 µM
same,TGI,NCI/ADR-RES ovarian,30.2 µM
same,GI50,OVCAR-3 ovarian,18 µM
same,TGI,OVCAR-3 ovarian,43.3 µM
same,GI50,OVCAR-4 ovarian,14.5 µM
same,TGI,OVCAR-4 ovarian,41.5 µM
same,GI50,OVCAR-5 ovarian,19.4 µM
same,TGI,OVCAR-5 ovarian,37.2 µM
same,GI50,OVCAR-8 ovarian,24.5 µM
same,TGI,OVCAR-8 ovarian,> 100 µM
same,GI50,PC-3 prostate,12.4 µM
same,TGI,PC-3 prostate,37.8 µM
same,GI50,RPMI-8226 leukemia,29.8 µM
same,TGI,RPMI-8226 leukemia,> 100 µM
same,GI50,RXF 393 renal,13.6 µM
same,TGI,RXF 393 renal,28.9 µM
same,GI50,SF-268 CNS,24.2 µM
same,TGI,SF-268 CNS,78.9 µM
same,GI50,SF-295 CNS,12.6 µM
same,TGI,SF-295 CNS,25.9 µM
same,GI50,SF-539 CNS,15 µM
same,TGI,SF-539 CNS,28.5 µM
same,GI50,SK-MEL-2 melanoma,30.2 µM
same,TGI,SK-MEL-2 melanoma,> 100 µM
same,GI50,SK-MEL-28 melanoma,19.6 µM
same,TGI,SK-MEL-28 melanoma,52.1 µM
same,GI50,SK-MEL-5 melanoma,16.5 µM
same,TGI,SK-MEL-5 melanoma,39.1 µM
same,GI50,SK-OV-3 ovarian,17 µM
same,TGI,SK-OV-3 ovarian,33.1 µM
same,GI50,SN12C renal,19.4 µM
same,TGI,SN12C renal,48.9 µM
same,GI50,SNB-19 CNS,15.8 µM
same,TGI,SNB-19 CNS,34.5 µM
same,GI50,SNB-75 CNS,12.9 µM
same,TGI,SNB-75 CNS,29.6 µM
same,GI50,SR leukemia,42 µM
same,TGI,SR leukemia,> 100 µM
same,GI50,SW-620 colon,30.3 µM
same,TGI,SW-620 colon,> 100 µM
same,GI50,T-47D breast,24.9 µM
same,TGI,T-47D breast,> 100 µM
same,GI50,TK-10 renal,23.2 µM
same,TGI,TK-10 renal,44.4 µM
same,GI50,U251 CNS,23.6 µM
same,TGI,U251 CNS,65.6 µM
same,GI50,UACC-257 melanoma,28.9 µM
same,TGI,UACC-257 melanoma,> 100 µM
same,GI50,UACC-62 melanoma,15.3 µM
same,TGI,UACC-62 melanoma,38.1 µM
same,GI50,UO-31 renal,14.2 µM
same,TGI,UO-31 renal,31.4 µM
